Experimental data from patent US20260258172A1, “CATIONIC POLYMERS WITH SELECTIVE ANTIFUNGAL PROPERTIES” (Uniwersytet Jagiellonski, priority 2022, published 2026).
≈ marks a conversion by molar mass, not a printed value.

Experiments:
Assay type in all cases: cell-based
Fusarium oxysporum 109 = test: Antifungal microdilution MIC test; settings: comparative test
Description: (§1) In vitro tests of the antifungal activity of the polymers were performed with respect to selected fungal species obtained from international culture collections and the microorganism collection in the Department of Infection Control and Mycology, Chair of Microbiology, Jagiellonian University Medical College. The test was performed using the microdilution method in a liquid medium on flat-bottomed, 96-well polypropylene titration plates. The applied methodology was based on antifungal susceptibility testing procedures developed by the European Committee on Antimicrobial Susceptibility Testing (EUCAST) and on the Hancock Lab procedure for antimicrobial cationic peptides.
(§2) The test compounds were dissolved in sterile distilled water and starting concentrations of 5 g/L were prepared, from which a series of two-fold dilutions in water were obtained. Respective polymer dilutions were transferred in a volume of 20 μL on titration plates (wells 1-10). 20 μL of sterile distilled water was transferred to each of wells 11 and 12. Wells 1-11 were inoculated with fungi in a volume of 180 μL of fungal cell suspensions in a liquid medium, and 180 μL of the sterile medium was transferred to well 12. Fungal suspensions were prepared from fresh cultures on agar media by collecting spores using a sterile swab into sterile distilled water or sterile distilled water with Tween-20 added. Suspensions of certain strains were filtered to remove any hyphal elements (filters with a pore diameter of 20 μm and 10 μm were used). The suspensions were brought to a density of 0.5 on the McFarland scale, and subsequently diluted to 1:20 in a liquid RPMI-1640 medium with L-glutamine and without sodium bicarbonate, supplemented with glucose (2%) and buffered morpholinopropanesulfonic acid (MOPS) (0.165 mol/L).
(§3) Final polymer concentrations on plates after adding fungal suspensions in the liquid medium were 0.49-250 mg/L or 0.98-500 mg/L.
(§4) Incubation was performed at room temperature, 27° C., 37° C., depending on the fungal species, until fungal growth was obtained in growth control (well 11). After the incubation period, fungal growth was evaluated visually and the lowest polymer concentrations that caused complete fungal growth inhibition (MIC (minimal inhibitory concentration) values) were determined. […]

Fusarium solani DSM 1164 = test: Antifungal microdilution MIC test; settings: DSM1164, comparative test
Description: as §1, §2, §3, §4

[1] = system: Candida glabrata ATCC 15545; test: Antifungal microdilution MIC test; settings: Nakaseomyces glabratus, ATCC15545, comparative test
Description: as §1, §2, §3, §4

[2] = system: Fusarium oxysporum DSM 841; test: Antifungal microdilution MIC test; settings: DSM841, comparative test
Description: as §1, §2, §3, §4

Candida krusei ATCC 6258 = test: Antifungal microdilution MIC test; settings: Pichia kudriavzevii, ATCC6258, comparative test
Description: as §1, §2, §3, §4

[3] = system: 3T3-L1 murine embryonic fibroblast line; test: Neutral red uptake toxicity test, 3T3-L1 fibroblasts; settings: medium with serum
Description: Preliminary tests were conducted in the 3T3-L1 murine embryonic fibroblast line (ATCC, CL-173™), an immortalized line (highly tolerant cells). DMEM was used as the medium. 24 h after seeding and successful adhesion, polymers dissolved in the medium were added to the cells (the medium was first replaced with a serum-free medium in serum-free experiments), and viable cells were quantified after another 24 h using the neutral red uptake assay.
The toxicity of ciclopirox and terbinafine, two commercially used antifungal drugs, was evaluated in similar conditions (the same cell line, medium composition and exposure time).

[4] = system: Aspergillus flavus ATCC 204304; test: Antifungal microdilution MIC test; settings: comparative test; for MIC: Aspergillus flavus, ATCC204304
Description: as §1, §2, §3
(§5) Incubation was performed at room temperature, 27° C., 37° C., depending on the fungal species, until fungal growth was obtained in growth control (well 11). After the incubation period, fungal growth was evaluated visually and the lowest polymer concentrations that caused complete fungal growth inhibition (MIC (minimal inhibitory concentration) values) were determined.
(§6) A test was performed on selected fungal strains to compare MIC values of the PMAPTAC133 polymer with the MIC values of two known antifungal drugs (terbinafine and ciclopirox), used in the treatment of fungal infections of glabrous skin, hairy skin and nails.
(§7) The procedure described in the section above (Example 8) was used in the testing.
(§8) The drugs were dissolved in dimethyl sulfoxide (DMSO) and starting concentrations of 4 g/L were prepared, from which series of two-fold dilutions in DMSO were obtained. Respective […] concentrations were diluted to 1:100 in sterile water and subsequently transferred to wells 1-10 on a titration plate in a volume of 20 μL. Wells 11 and 12 were filled up with 20 μL DMSO diluted to 1:10 in water. Wells 1-11 were inoculated with fungi in a volume of 180 μL of fungal cell suspensions in a liquid medium, and […] of the sterile medium was transferred to well 12. Final drug concentrations on plates after adding fungal suspensions in the liquid medium were 0.008-4 mg/L.

Trichophyton rubrum D320 = test: Antifungal microdilution MIC test; settings: comparative test
Description: as §1, §2, §3, §5, §6, §7, §8

[5] = system: Trichophyton tonsurans DSM 12285; test: Antifungal microdilution MIC test; settings: DSM12285, comparative test
Description: as §1, §2, §3, §5, §6, §7, §8

[6] = system: Trichophyton mentagrophytes ATCC 18484; test: Antifungal microdilution MIC test; settings: comparative test; for MIC: Trichophyton mentagrophytes, ATCC18484
Description: as §1, §2, §3, §5, §6, §7, §8

[7] = system: Aspergillus fumigatus SU 56; test: Antifungal microdilution MIC test; settings: comparative test; for MIC: Aspergillus fumigatus, SU56
Description: as §1, §2, §3, §5, §6, §7, §8

[8] = system: Trichophyton interdigitale 251; test: Antifungal microdilution MIC test; settings: comparative test, incubation time 72 h
Description: as §1, §2, §3, §5, §6, §7, §8

[9] = system: Trichophyton interdigitale D182; test: Antifungal microdilution MIC test; settings: comparative test
Description: as §1, §2, §3, §5, §6, §7, §8

[10] = system: Trichophyton rubrum DSM 16111; test: Antifungal microdilution MIC test; settings: DSM16111, comparative test
Description: as §1, §2, §3, §5, §6, §7, §8

[11] = system: Scopulariopsis brevicaulis 34; test: Antifungal microdilution MIC test; settings: comparative test
Description: as §1, §2, §3, §5, §6, §7, §8

[12] = system: Fusarium solani strain 155; test: Antifungal microdilution MIC test; settings: comparative test
Description: as §1, §2, §3, §5, §6, §7, §8

[13] = system: Aspergillus terreus DSM 1958; test: Antifungal microdilution MIC test; settings: comparative test; for MIC: Aspergillus terreus, DSM1958
Description: as §1, §2, §3, §5, §6, §7, §8

[14] = system: Trichophyton interdigitale DSM4167; test: Antifungal microdilution MIC test; settings: comparative test
Description: as §1, §2, §3, §5, §6, §7, §8

[15] = system: Trichophyton tonsurans 264; test: Antifungal microdilution MIC test; settings: comparative test
Description: as §1, §2, §3, §5, §6, §7, §8

[16] = system: Candida albicans ATCC 90028; test: Antifungal microdilution MIC test; settings: ATCC90028, comparative test
Description: as §1, §2, §3, §5, §6, §7, §8

Trichophyton rubrum D197 = test: Antifungal microdilution MIC test; settings: comparative test
Description: as §1, §2, §3, §5, §6, §7, §8

[17] = system: Aspergillus brasiliensis ATCC 16404; test: Antifungal microdilution MIC test; settings: comparative test; for MIC: Aspergillus brasiliensis, ATCC16404
Description: as §1, §2, §3, §5, §6, §7, §8

[18] = system: Aspergillus fumigatus DSM 819; test: Antifungal microdilution MIC test; settings: comparative test; for MIC: Aspergillus fumigatus, DSM819
Description: as §1, §2, §3, §5, §6, §7, §8

Cryptococcus neoformans = test: Antifungal microdilution MIC test; settings: Cryptococcus neoformans, comparative test
Description: as §1, §2, §3, §5, §6, §7, §8

[19] = system: Scopulariopsis brevicaulis DSM 9122; test: Antifungal microdilution MIC test; settings: DSM9122, comparative test
Description: as §1, §2, §3, §5, §6, §7, §8

- MIC (Fusarium oxysporum 109; incubation time 24 h): > 4 µg/mL
- MIC (Fusarium oxysporum 109; incubation time 48 h): > 4 µg/mL
- MIC (Fusarium solani DSM 1164; incubation time 24 h): > 4 µg/mL
- MIC (Fusarium solani DSM 1164; incubation time 48 h): > 4 µg/mL
- MIC ([1]; incubation time 24 h): > 4 µg/mL
- MIC ([1]; incubation time 48 h): > 4 µg/mL
- MIC ([2]; incubation time 24 h): > 4 µg/mL
- MIC ([2]; incubation time 48 h): > 4 µg/mL
- MIC (Candida krusei ATCC 6258; incubation time 24 h): > 4 µg/mL
- MIC (Candida krusei ATCC 6258; incubation time 48 h): > 4 µg/mL
- MIC ([4]; incubation time 24 h): 4 µg/mL (≈ 13.7 µM)
- MIC ([4]; incubation time 48 h): > 4 µg/mL
- MIC (Trichophyton rubrum D320; incubation time 48 h): 0.125 µg/mL (≈ 0.429 µM)
- MIC (Trichophyton rubrum D320; incubation time 72 h): 2 µg/mL (≈ 6.86 µM)
- MIC ([5]; incubation time 48 h): 0.25 µg/mL (≈ 0.858 µM)
- MIC ([5]; incubation time 72 h): 0.25 µg/mL (≈ 0.858 µM)
- MIC ([6]; incubation time 24 h): 0.125 µg/mL (≈ 0.429 µM)
- MIC ([6]; incubation time 48 h): 0.5 µg/mL (≈ 1.72 µM)
- MIC ([6]; incubation time 72 h): 1 µg/mL (≈ 3.43 µM)
- MIC ([7]; incubation time 24 h): 4 µg/mL (≈ 13.7 µM)
- MIC ([7]; incubation time 48 h): > 4 µg/mL
- MIC [8]: 1 µg/mL (≈ 3.43 µM)
- MIC ([9]; incubation time 48 h): 0.25 µg/mL (≈ 0.858 µM)
- MIC ([9]; incubation time 72 h): 0.5 µg/mL (≈ 1.72 µM)
- MIC ([10]; incubation time 24 h): 0.06 µg/mL (≈ 0.206 µM)
- MIC ([10]; incubation time 48 h): 0.25 µg/mL (≈ 0.858 µM)
- MIC ([10]; incubation time 72 h): 0.25 µg/mL (≈ 0.858 µM)
- MIC ([11]; incubation time 24 h): > 4 µg/mL
- MIC ([11]; incubation time 48 h): > 4 µg/mL
- MIC ([12]; incubation time 24 h): > 4 µg/mL
- MIC ([12]; incubation time 48 h): > 4 µg/mL
- MIC ([13]; incubation time 24 h): 2 µg/mL (≈ 6.86 µM)
- MIC ([13]; incubation time 48 h): > 4 µg/mL
- MIC ([14]; incubation time 48 h): 0.25 µg/mL (≈ 0.858 µM)
- MIC ([14]; incubation time 72 h): 0.25 µg/mL (≈ 0.858 µM)
- MIC ([15]; incubation time 48 h): 0.5 µg/mL (≈ 1.72 µM)
- MIC ([15]; incubation time 72 h): 0.5 µg/mL (≈ 1.72 µM)
- MIC ([16]; incubation time 24 h): > 4 µg/mL
- MIC ([16]; incubation time 48 h): > 4 µg/mL
- MIC (Trichophyton rubrum D197; incubation time 48 h): 0.125 µg/mL (≈ 0.429 µM)
- MIC (Trichophyton rubrum D197; incubation time 72 h): 0.25 µg/mL (≈ 0.858 µM)
- MIC ([17]; incubation time 24 h): 2 µg/mL (≈ 6.86 µM)
- MIC ([17]; incubation time 48 h): > 4 µg/mL
- MIC ([18]; incubation time 24 h): > 4 µg/mL
- MIC ([18]; incubation time 48 h): > 4 µg/mL
- MIC (Cryptococcus neoformans; incubation time 24 h): > 4 µg/mL
- MIC (Cryptococcus neoformans; incubation time 48 h): > 4 µg/mL
- MIC ([19]; incubation time 24 h): > 4 µg/mL
- MIC ([19]; incubation time 48 h): > 4 µg/mL
Compound: CN(C/C=C/C#CC(C)(C)C)Cc1cccc2ccccc12 [Terbinafine, terbinafine]
- concentration at which the number of viable cells decreased to less than 50% ([3]; 24 h exposure): 25000 ng/mL
- viable cells ([3]; concentrations of 50, 75 and 100 μg/mL, 24 h): ≤ 10%
- concentration with growth suppression ([4]; incubation time 48 h): 2 mg/L
- concentration with marginal growth ([6]; incubation time 48 h): 0.25 mg/L
- concentration with growth suppression ([7]; incubation time 48 h): >4 mg/L
- concentration with growth suppression ([13]; incubation time 48 h): 2 mg/L
- concentration with (clear) growth suppression ([17]; incubation time 48 h): 2 mg/L
- concentration with growth suppression ([18]; incubation time 24 h): 2 mg/L
